The subject of test [1] is BV-2. The test is described as follows: Anti-inflammatory activity against LPS-induced mouse BV-2 cells assessed as increase in cell viability preincubated with compound for 1 hrs followed by LPS stimulation and measured after 24 hrs by CCK-8 method. The following applies: dose 2.5-20 µM, time 25.0 hrs. It counts as functional, cell-based.
The test system of test [2] is BV-2. Nature of the test: Anti-inflammatory activity in mouse BV-2 cells assessed as inhibition of LPS-induced NO production preincubated with compound for 1 hrs followed by LPS stimulation and measured after 24 hrs by Griess reagent based assay. Type of test: functional, cell-based.

Each structure is given as a SMILES string.

Regarding `CCCCCC[C@H]1O[C@]23O[C@H]1CC[C@@H]2C(=O)CC[C@H]3O`, the Activity result in the test with BV-2 [1] is “Dose-Dependent Effect”. Also, in the test with BV-2 [2], the IC50 came to 3 µM.

As for `CCCCCC[C@@H]1O[C@]23O[C@H]1CC=C2C(=O)CC[C@H]3O`, the Activity result in the test with BV-2 [1] is “Dose-Dependent Effect”. In the test with BV-2 [2], the IC50 came out at 8.9 µM.

Consider `CCCCCC[C@@H]1O[C@@]23CC[C@@H](O)C(=O)[C@H]2CC[C@@H]1O3`, for which the Activity result in the test on BV-2 [1] was “Dose-Dependent Effect”. Moreover, the IC50 in the test with BV-2 [2] came to 14 µM.

For orientation: IC50 means the point on the concentration scale where inhibition reaches its midpoint.

These data come from ChEMBL document CHEMBL5321265, “Polyketides with Anti-Inflammatory Activity from Trichoderma koningiopsis, a Rhizosphere Fungus from the Medicinal Plant Polygonum paleaceum” (J Nat Prod, 2023).
